Values quoted from earlier work in patent publication US20060251637A1, “Oil-in-water type emulsion containing coenzyme q10 and process for producting the same” (priority 2003, published 2006).

Settings: at 20° C.; decreases with decreasing temperature

## COC1=C(OC)C(=O)C(C/C=C(\C)CC/C=C(\C)CC/C=C(\C)CC/C=C(\C)CC/C=C(\C)CC/C=C(\C)CC/C=C(\C)CC/C=C(\C)CC/C=C(\C)CCC=C(C)C)=C(C)C1=O [coenzyme Q10]
  Lipid solubility of coenzyme Q10: approximately 1%
